Assay results from PubChem BioAssay (NCI).
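48-hour exposure; five concentrations; linearly interpolated endpoints. Abbreviation: GI50, concentration required for 50% inhibition of growth. The concentration for full growth arrest is given as TGI.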

Assays:
Assay in all cases: DTP human tumour cell line panel, 48 h
NCI/ADR-RES ovarian = test system: NCI/ADR-RES ovarian
SNB-75 CNS = test system: SNB-75 CNS
786-0 renal = test system: 786-0 renal
MDA-N = test system: MDA-N
COLO 205 colon = test system: COLO 205 colon
HCT-116 colon = test system: HCT-116 colon
PC-3 prostate = test system: PC-3 prostate
MDA-MB-435 = test system: MDA-MB-435
RXF 393 renal = test system: RXF 393 renal
OVCAR-8 ovarian = test system: OVCAR-8 ovarian

Row | Structure (SMILES) | TGI (NCI/ADR-RES ovarian) | TGI (SNB-75 CNS) | TGI (786-0 renal) | TGI (MDA-N) | TGI (COLO 205 colon) | TGI (HCT-116 colon) | TGI (PC-3 prostate) | TGI (MDA-MB-435) | TGI (RXF 393 renal) | TGI (OVCAR-8 ovarian) | GI50 (OVCAR-8 ovarian) | GI50 (SNB-75 CNS) | GI50 (COLO 205 colon) | GI50 (HCT-116 colon) | GI50 (RXF 393 renal) | GI50 (PC-3 prostate) | GI50 (MDA-MB-435)
1 | CCCCCCCc1ccc(-c2nnc(N=Nc3ccc(OCCCCC)cc3)s2)s1 | > 100 µM | > 100 µM | > 100 µM | > 100 µM | > 100 µM | > 100 µM | > 100 µM | > 100 µM | > 100 µM | – | – | – | – | – | – | – | –
2 | COC(=O)CC1CC2(C(=O)OC)c3[nH]c4ccccc4c3CCN2C1=O (stereo unspecified) | – | > 100 µM | > 100 µM | – | > 100 µM | > 100 µM | – | – | > 100 µM | > 100 µM | – | – | – | – | – | – | –
3 | Cc1ccc2nc(C(=O)O)c(=O)[nH]c2c1 | > 100 µM | – | > 100 µM | > 100 µM | > 100 µM | > 100 µM | > 100 µM | > 100 µM | > 100 µM | > 100 µM | – | – | – | – | – | – | –
4 | C[n+]1c(-c2ccc(/C=N/NC(=O)C(=O)N/N=C/c3ccc(-c4cn5ccccc5[n+]4C)cc3)cc2)cn2ccccc21 | > 100 µM | > 100 µM | > 100 µM | > 100 µM | > 100 µM | – | > 100 µM | > 100 µM | > 100 µM | > 100 µM | – | – | – | – | – | – | –
5 | c1cncc([O][Ge]([O]c2cccnc2)([O]c2cccnc2)[O]c2cccnc2)c1 | – | > 100 µM | – | – | > 100 µM | > 100 µM | – | – | > 100 µM | > 100 µM | > 100 µM | > 100 µM | > 100 µM | > 100 µM | > 100 µM | – | –
6 | COc1cc2c(cc1OC)C(=O)/C(=C/c1ccc(N(C)C)cc1)CC2 | > 10 µM | – | > 10 µM | > 10 µM | > 10 µM | > 10 µM | > 10 µM | > 10 µM | > 10 µM | > 10 µM | – | – | – | – | – | – | –
7 | Cc1cc(C)n2c(nc3ccccc32)c1C#N | > 100 µM | – | > 100 µM | > 100 µM | > 100 µM | > 100 µM | > 100 µM | > 100 µM | > 100 µM | > 100 µM | – | – | – | – | – | – | –
8 | COc1cccc(CCCNC(=O)Cc2ccccc2CO)c1 | > 100 µM | > 100 µM | > 100 µM | > 100 µM | > 100 µM | > 100 µM | > 100 µM | > 100 µM | – | > 100 µM | – | – | – | – | – | – | –
9 | Cc1ccc(NCCN(C)C)c2c(=O)c3cc(O)ccc3sc12 | – | 9.24 µM | 9.07 µM | 4.58 µM | 23.2 µM | 8.79 µM | 11.1 µM | 2.94 µM | 4.8 µM | 6.84 µM | – | – | – | – | – | – | –
10 | CCOC(=O)c1c(-c2ccccc2)c(C)cn1C | > 10 µM | > 10 µM | > 10 µM | > 10 µM | – | > 10 µM | – | > 10 µM | > 10 µM | > 10 µM | – | – | – | – | – | – | –
11 | COc1ccc(C23OCC(Cc4cc(OC)c(OC)cc42)C3CO)cc1OC (stereo unspecified) | > 100 µM | > 100 µM | > 100 µM | – | > 100 µM | > 100 µM | > 100 µM | > 100 µM | > 100 µM | – | – | – | – | – | – | – | –
12 | O=C(c1ccccc1)c1cc(Cl)ccc1NCn1nnc2ccccc21 | – | > 100 µM | > 100 µM | – | > 100 µM | – | – | – | > 100 µM | > 100 µM | – | – | – | – | – | – | –
13 | CCCCCCCCCCCCC1N=C(N)NC2(CCCO2)C1C(=O)OC (stereo unspecified) | 42.9 µM | 7.99 µM | 16.9 µM | – | 10.9 µM | 7.32 µM | 8.57 µM | 15.6 µM | 6.12 µM | 23.3 µM | – | – | – | – | – | – | –
14 | Cn1c(=O)c2c(nc(N/N=C3/SCC(=O)N3Cc3ccccc3)n2C)n(C)c1=O | > 100 µM | – | > 100 µM | > 100 µM | > 100 µM | > 100 µM | > 100 µM | > 100 µM | > 100 µM | > 100 µM | – | – | – | – | – | – | –
15 | C/C(Nc1ccc(Cl)cc1)=C1/CCOC1=O | > 100 µM | > 100 µM | > 100 µM | > 100 µM | – | > 100 µM | > 100 µM | > 100 µM | > 100 µM | > 100 µM | – | – | – | – | – | – | –
16 | CN(C)C(=O)Oc1ccc(C(=S)Nc2ccccc2)cc1 | 91.8 µM | – | > 100 µM | > 100 µM | > 100 µM | > 100 µM | > 100 µM | > 100 µM | – | 64 µM | – | – | – | – | – | – | –
17 | Cc1ccc(NC(=O)C(=O)Cc2cccc[n+]2[O-])cc1C | – | > 100 µM | > 100 µM | – | > 100 µM | > 100 µM | – | – | > 100 µM | > 100 µM | – | – | – | – | – | – | –
18 | c1ccc(Nc2nnc(CCCCCCCCc3nnc(Nc4ccccc4)o3)o2)cc1 | > 100 µM | > 100 µM | > 100 µM | – | > 100 µM | > 100 µM | > 100 µM | > 100 µM | > 100 µM | > 100 µM | – | – | – | – | – | – | –
19 | O=c1c2cc(I)ccc2nc(-c2cccs2)n1O | > 100 µM | – | > 100 µM | > 100 µM | > 100 µM | > 100 µM | > 100 µM | > 100 µM | > 100 µM | > 100 µM | – | – | – | – | – | – | –
20 | CC[C@@]12CCC(=S)N(CCSc3ccccc3)[C@@H]1c1c(n(S(=O)(=O)c3ccc(OC)cc3)c3ccccc13)CC2 | > 100 µM | > 100 µM | > 100 µM | – | > 100 µM | > 100 µM | > 100 µM | > 100 µM | > 100 µM | > 100 µM | – | – | – | – | – | – | –
21 | O=C(/C(=C/c1ccc(O)cc1)c1ccccc1)c1ccccc1 | – | 42.5 µM | 34.5 µM | – | 32.8 µM | 31.5 µM | – | – | – | 60 µM | – | – | – | – | – | – | –
22 | CC(=O)[C@]1(O)Cc2c(O)c3c(c(O)c2[C@@H](OC2CC(N)C(O)C(C)O2)C1)C(=O)c1c(OCc2ccccc2)cccc1C3=O (stereo partly specified) | – | 13.8 µM | 2.16 µM | 2.98 µM | – | 1.79 µM | 2.64 µM | 2.95 µM | 15.1 µM | 7.8 µM | – | – | – | – | – | – | –
23 | N#Cc1c(N)nc(Sc2ccccc2N)c(C#N)c1-c1ccccc1 | 42.5 µM | – | 63.3 µM | – | > 100 µM | > 100 µM | 33.3 µM | 97.3 µM | – | 75 µM | – | – | – | – | – | – | –
24 | CCN(CC)CCNc1ccc([N+](=O)[O-])c2sc3cc(Cl)ccc3c(=O)c12 | – | – | – | – | > 100 µM | > 100 µM | > 100 µM | > 100 µM | – | – | – | – | 3.93 µM | 3.24 µM | – | 2.65 µM | 2.83 µM
